Assays:
EGFR = EGFR (UniProt P00533)
EGFR (human) = EGFR (human) (UniProt P00533); settings: nih3t3
EGFR (human), sequence (P00533 whole entry, looked up): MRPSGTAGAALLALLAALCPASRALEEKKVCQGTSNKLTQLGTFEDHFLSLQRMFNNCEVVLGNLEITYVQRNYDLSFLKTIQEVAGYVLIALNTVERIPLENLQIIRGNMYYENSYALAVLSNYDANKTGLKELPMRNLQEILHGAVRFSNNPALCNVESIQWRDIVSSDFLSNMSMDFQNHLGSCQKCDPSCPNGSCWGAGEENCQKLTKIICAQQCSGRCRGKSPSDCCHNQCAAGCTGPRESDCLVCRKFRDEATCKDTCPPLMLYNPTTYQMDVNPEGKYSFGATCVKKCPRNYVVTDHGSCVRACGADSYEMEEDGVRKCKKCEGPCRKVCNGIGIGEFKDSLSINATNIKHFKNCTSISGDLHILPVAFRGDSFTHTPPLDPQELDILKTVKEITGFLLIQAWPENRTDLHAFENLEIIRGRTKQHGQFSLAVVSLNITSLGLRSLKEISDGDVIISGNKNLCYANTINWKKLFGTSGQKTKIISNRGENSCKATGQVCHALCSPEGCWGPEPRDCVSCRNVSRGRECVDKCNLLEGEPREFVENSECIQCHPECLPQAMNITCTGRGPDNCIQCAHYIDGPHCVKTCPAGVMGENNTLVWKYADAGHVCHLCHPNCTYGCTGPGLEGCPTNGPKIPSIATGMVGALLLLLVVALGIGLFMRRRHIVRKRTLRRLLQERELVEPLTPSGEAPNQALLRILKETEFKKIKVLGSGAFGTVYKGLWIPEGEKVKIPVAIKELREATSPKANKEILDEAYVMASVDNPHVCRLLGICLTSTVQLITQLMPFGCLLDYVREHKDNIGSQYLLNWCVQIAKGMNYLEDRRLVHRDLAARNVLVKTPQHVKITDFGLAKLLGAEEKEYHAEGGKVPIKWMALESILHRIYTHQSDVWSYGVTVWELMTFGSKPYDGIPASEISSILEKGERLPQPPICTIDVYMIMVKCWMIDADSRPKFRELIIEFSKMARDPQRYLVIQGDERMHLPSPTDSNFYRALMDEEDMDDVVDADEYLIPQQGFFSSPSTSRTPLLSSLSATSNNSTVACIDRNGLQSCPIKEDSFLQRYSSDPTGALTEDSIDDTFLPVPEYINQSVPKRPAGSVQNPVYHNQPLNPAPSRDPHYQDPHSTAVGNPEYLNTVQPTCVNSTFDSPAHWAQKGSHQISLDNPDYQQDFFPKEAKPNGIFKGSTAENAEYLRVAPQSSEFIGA

EGFR, sequence (P00533 whole entry, looked up): as above

Structure (SMILES)	IC50 (EGFR)	IC50 (EGFR (human))
Cc1[nH]c(/C=C2\C(=O)Nc3ccc(S(=O)(=O)NC(C)C)cc32)c(C)c1CCCN(C)C	> 100 µM	
Cc1[nH]c(/C=C2\C(=O)Nc3ccccc32)c(C)c1CCCN1CCOCC1	> 100 µM	> 50 µM
COc1ccc(-c2ccc3c(c2)NC(=O)/C3=C\c2[nH]c(C)c(CCCN3CCOCC3)c2C)cc1	> 100 µM	
Cc1cccc2c1/C(=C/c1[nH]cc(CCC(=O)O)c1C)C(=O)N2		> 50 µM
Cc1[nH]c(/C=C2\C(=O)Nc3cc(-c4ccccc4)ccc32)c(C)c1CCCN(C)C	> 100 µM	4 µM
Cc1[nH]c(/C=C2\C(=O)Nc3ccc(S(=O)(=O)N4CCOCC4)cc32)c(C)c1CCCN(C)C	> 100 µM	29.8 µM
Cc1cccc2c1/C(=C/c1[nH]c(C)c(CCCN(C)C)c1C)C(=O)N2	> 100 µM	20.2 µM
COc1ccc(-c2ccc3c(c2)NC(=O)/C3=C\c2[nH]c(C)c(CCCN(C)C)c2C)cc1	> 100 µM	
Cc1[nH]c(/C=C2\C(=O)Nc3cccc(CCO)c32)c(C)c1CCCN(C)C	> 100 µM	25.3 µM
Cc1c(CCC(=O)O)c[nH]c1/C=C1\C(=O)Nc2cc(-c3ccccc3)ccc21		30.5 µM
COc1cccc(-c2ccc3c(c2)NC(=O)/C3=C\c2[nH]c(C)c(CCCN3CCOCC3)c2C)c1	> 100 µM	
Cc1c(CCC(=O)O)c[nH]c1/C=C1\C(=O)Nc2ccccc21		> 50 µM
Cc1[nH]c(/C=C2\C(=O)Nc3cc(-c4ccccc4)ccc32)c(C)c1CCCN1CCOCC1	> 100 µM	> 50 µM
COc1ccc2c(c1)NC(=O)/C2=C\c1[nH]c(C)c(CCCN(C)C)c1C	> 100 µM	
COc1ccccc1-c1ccc2c(c1)NC(=O)/C2=C\c1[nH]c(C)c(CCCN2CCOCC2)c1C	> 100 µM	

Other lines, results leading:

IC50 (EGFR)	IC50 (EGFR (human))	Structure (SMILES)
> 100 µM		COc1ccc2c(c1)/C(=C/c1[nH]c(C)c(CCCN(C)C)c1C)C(=O)N2
	> 50 µM	Cc1[nH]c(/C=C2\C(=O)Nc3cc(O)ccc32)c(C)c1CCC(=O)O
	32.7 µM	Cc1[nH]c(/C=C2\C(=O)Nc3cc(-c4ccccc4)ccc32)c(C)c1CCC(=O)O
> 100 µM	12.6 µM	Cc1[nH]c(/C=C2\C(=O)Nc3ccccc32)c(C)c1CCCN(C)C
	> 50 µM	Cc1[nH]c(/C=C2\C(=O)Nc3ccc(I)cc32)c(C)c1CCC(=O)O
> 100 µM	11.2 µM	Cc1[nH]c(/C=C2\C(=O)Nc3ccc(S(=O)(=O)N(C)C)cc32)c(C)c1CCCN(C)C
	> 50 µM	Cc1c(CCC(=O)O)c[nH]c1/C=C1\C(=O)Nc2ccc(I)cc21
	> 50 µM	Cc1ccc2c(c1)/C(=C/c1[nH]cc(CCC(=O)O)c1C)C(=O)N2
	> 50 µM	Cc1[nH]c(/C=C2\C(=O)Nc3ccc(Br)cc32)c(C)c1CCC(=O)O
> 100 µM	25.4 µM	Cc1ccc2c(c1)/C(=C/c1[nH]c(C)c(CCCN(C)C)c1C)C(=O)N2
> 100 µM	7.49 µM	Cc1[nH]c(/C=C2\C(=O)Nc3ccc(Cl)cc32)c(C)c1CCCN(C)C
	> 50 µM	Cc1c(CCC(=O)O)c[nH]c1/C=C1\C(=O)Nc2ccc(Br)cc21
	> 50 µM	Cc1[nH]c(/C=C2\C(=O)Nc3ccc(Cl)cc32)c(C)c1CCC(=O)O
	> 50 µM	Cc1c(CCC(=O)O)c[nH]c1/C=C1\C(=O)Nc2cc(Cl)ccc21
86.6 µM	25.4 µM	Cc1[nH]c(/C=C2\C(=O)Nc3cc(Cl)ccc32)c(C)c1CCCN(C)C
	12 µM	Cc1c(CCC(=O)O)c[nH]c1/C=C1\C(=O)Nc2ccc(Cl)cc21
	> 50 µM	Cc1cccc2c1/C(=C/c1[nH]c(C)c(CCC(=O)O)c1C)C(=O)N2
	> 50 µM	Cc1ccc2c(c1)/C(=C/c1[nH]c(C)c(CCC(=O)O)c1C)C(=O)N2
	> 50 µM	Cc1c(CCC(=O)O)c[nH]c1/C=C1\C(=O)Nc2cc(Br)ccc21
> 100 µM	6.59 µM	Cc1[nH]c(/C=C2\C(=O)Nc3ccc(S(N)(=O)=O)cc32)c(C)c1CCCN(C)C
> 100 µM	44.6 µM	Cc1[nH]c(/C=C2\C(=O)Nc3ccc(Br)cc32)c(C)c1CCCN1CCOCC1
> 100 µM	4.1 µM	Cc1[nH]c(/C=C2\C(=O)Nc3ccc(Br)cc32)c(C)c1CCCN(C)C

Source: the Kinase Knowledgebase extract (Sharma et al. 2016)
